In patent publication US8138168B1 (Takeda Pharmaceutical Company Limited, priority 2007, dated 2012) one finds IC50 data, which are given here for 24 molecules.

The target in this assay is T1, Recombinant human renin (Homo sapiens, UniProt P00797).
T1 construct: isolate the active form (residues 67-406); made in house; host or cells: FreeStyle 293-F cells (transient expression of pcDNA3.1(+)/hREN)
T1 sequence (P00797 67-406): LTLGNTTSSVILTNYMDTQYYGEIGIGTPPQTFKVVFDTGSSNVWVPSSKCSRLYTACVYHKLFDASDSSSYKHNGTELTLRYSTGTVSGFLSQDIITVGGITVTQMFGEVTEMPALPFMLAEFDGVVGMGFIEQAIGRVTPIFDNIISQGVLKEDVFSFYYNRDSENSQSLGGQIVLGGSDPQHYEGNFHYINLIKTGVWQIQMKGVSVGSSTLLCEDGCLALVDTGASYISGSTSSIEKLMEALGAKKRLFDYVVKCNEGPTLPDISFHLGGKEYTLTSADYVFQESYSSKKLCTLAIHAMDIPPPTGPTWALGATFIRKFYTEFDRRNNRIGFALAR
In words: In vitro enzymatic activity assay of renin inhibitors (fluorogenic peptide substrate). The format is biochemical. The following applies: read-out: IC50 of Exemplified Compounds Against Renin. Summed up:
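Enzyme: recombinant human renin, 3 nM final, 10 min compound pre-incubation at 37 °C; buffer 50 mM Hepes pH 7.4 with 0.1 mg/mL BSA or extra 2% BSA; 5% DMSO.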
The term IC50 denotes the concentration that gives 50% inhibition. In the case of `COCCCn1c([C@@H]2CCCN(C(=O)C[C@H](N)Cc3ccc(-c4csc(N5CC[C@H](O)C5)n4)cc3)C2)nc2ccccc21` [Compound 435, (R)-3-amino-4-(4-(2-((S)-3-hydroxypyrrolidin-1-yl)thiazol-4-yl)phenyl)-1-((R)-3-(1-(3-methoxypropyl)-1H-benzo[d]imidazol-2-yl)piperidin-1-yl)butan-1-one], the IC50 was less than 100 nM. Take `COCCCn1c([C@@H]2CCCN(C(=O)C[C@H](N)Cc3ccc(-c4ccc(N5CCNC5=O)cc4)cc3)C2)nc2ccccc21` [Compound 436, 1-(4′-((R)-2-amino-4-((R)-3-(1-(3-methoxypropyl)-1H-benzo[d]imidazol-2-yl)piperidin-1-yl)-4-oxobutyl)biphenyl-4-yl)imidazolidin-2-one]: the IC50 is less than 100 nM.

For the molecule `COCCCn1c([C@@H]2CCCN(C(=O)C[C@H](N)Cc3ccc(-c4ccnc(O)c4)cc3)C2)nc2ccccc21` [Compound 437, (R)-3-amino-4-(4-(2-hydroxypyridin-4-yl)phenyl)-1-((R)-3-(1-(3-methoxypropyl)-1H-benzo[d]imidazol-2-yl)piperidin-1-yl)butan-1-one], the 50% inhibitory concentration (IC50) is less than 100 nM. On to `COCCCn1c([C@@H]2CCCN(C(=O)C[C@H](N)Cc3ccc(-c4ccc5c(c4)NC(=O)CO5)cc3)C2)nc2ccccc21` [Compound 438, 6-(4-((R)-2-amino-4-((R)-3-(1-(3-methoxypropyl)-1H-benzo[d]imidazol-2-yl)piperidin-1-yl)-4-oxobutyl)phenyl)-2H-benzo[b][1,4]oxazin-3(4H)-one], for which the IC50 is less than 100 nM.

As for `COCCCn1c([C@@H]2CCCN(C(=O)C[C@H](N)Cc3ccc(-c4ccc5c(c4)OCCN5C)cc3)C2)nc2ccccc21` [Compound 439, (R)-3-amino-1-((R)-3-(1-(3-methoxypropyl)-1H-benzo[d]imidazol-2-yl)piperidin-1-yl)-4-(4-(4-methyl-3,4-dihydro-2H-benzo[b][1,4]oxazin-7-yl)phenyl)butan-1-one], the IC50 is less than 100 nM. `COCCCn1c([C@@H]2CCCN(C(=O)C[C@H](N)Cc3ccc(-c4ccc(N5CCNC5=O)cc4)cc3)C2)nc2c(F)cccc21` [Compound 441, 1-(4′-((R)-2-amino-4-((R)-3-(4-fluoro-1-(3-methoxypropyl)-1H-benzo[d]imidazol-2-yl)piperidin-l-yl)-4-oxobutyl)biphenyl-4-yl)imidazolidin-2-one]: the IC50 was less than 100 nM. Turning to `COCCCn1c([C@@H]2CCCN(C(=O)C[C@H](N)Cc3ccc(-c4ccc5c(c4)SCC(=O)N5)cc3)C2)nc2c(F)cccc21` [Compound 442, 7-(4-((R)-2-amino-4-((R)-3-(4-fluoro-1-(3-methoxypropyl)-1H-benzo[d]imidazol-2-yl)piperidin-1-yl)-4-oxobutyl)phenyl)-2H-benzo[b][1,4]thiazin-3(4H)-one], the IC50 is less than 100 nM. Take `COCCCn1c([C@@H]2CCCN(C(=O)C[C@H](N)Cc3ccc(-c4ccc5c(c4)OCC(=O)N5)cc3)C2)nc2c(F)cccc21` [Compound 443, 7-(4-((R)-2-amino-4-((R)-3-(4-fluoro-1-(3-methoxypropyl)-1H-benzo[d]imidazol-2-yl)piperidin-1-yl)-4-oxobutyl)phenyl)-2H-benzo[b][1,4]oxazin-3(4H)-one]: the IC50 was less than 100 nM. The value for `COCCCn1c([C@@H]2CCCN(C(=O)C[C@H](N)Cc3ccc(-c4ccnc(O)c4)cc3)C2)nc2c(F)cccc21` [Compound 444, (R)-3-amino-1-((R)-3-(4-fluoro-1-(3-methoxypropyl)-1H-benzo[d]imidazol-2-yl)piperidin-1-yl)-4-(4-(2-hydroxypyridin-4-yl)phenyl)butan-1-one] was less than 100 nM; that for `CC(=O)NCCn1c([C@@H]2CCCN(C(=O)C[C@H](N)Cc3ccc(-c4ccc(O)nc4)cc3)C2)nc2ccccc21` [Compound 445, N-(2-(2-((R)-1-((R)-3-amino-4-(4-(6-hydroxypyridin-3-yl)phenyl)butanoyl)piperidin-3-yl)-1H-benzo[d]imidazol-1-yl)ethyl)acetamide] was 100 to 1000 nM.

Consider `CC(=O)NCCn1c([C@@H]2CCCN(C(=O)C[C@H](N)Cc3ccc(-c4ccc(N)nc4)cc3)C2)nc2ccccc21` [Compound 446, N-(2-(2-((R)-1-((R)-3-amino-4-(4-(6-aminopyridin-3-yl)phenyl)butanoyl)piperidin-3-yl)-1H-benzo[d]imidazol-1-yl)ethyl)acetamide], for which the 50% inhibitory concentration (IC50) was 100 to 1000 nM. For `CN1CCOc2cc(-c3ccc(C[C@@H](N)CC(=O)N4CCC[C@@H](c5nc6ccccc6n5CCC(N)=O)C4)cc3)ccc21` [Compound 447, 3-(2-((R)-1-((R)-3-amino-4-(4-(4-methyl-3,4-dihydro-2H-benzo[b][1,4]oxazin-7-yl)phenyl)butanoyl)piperidin-3-yl)-1H-benzo[d]imidazol-1-yl)propanamide], the IC50 is 100 to 1000 nM. Take `CC(=O)NCCn1c([C@@H]2CCCN(C(=O)C[C@H](N)Cc3ccc(-c4ccc5c(c4)OC(F)(F)O5)cc3)C2)nc2ccccc21` [Compound 448, N-(2-(2-((R)-1-((R)-3-amino-4-(4-(2,2-difluorobenzo[d][1,3]dioxol-5-yl)phenyl)butanoyl)piperidin-3-yl)-1H-benzo[d]imidazol-1-yl)ethyl)acetamide]: the IC50 was 100 to 1000 nM. Regarding `CC(=O)NCCn1c([C@@H]2CCCN(C(=O)C[C@H](N)Cc3ccc(-c4ccc5c(c4)OCCO5)cc3)C2)nc2ccccc21` [Compound 449, N-(2-(2-((R)-1-((R)-3-amino-4-(4-(2,3-dihydrobenzo[b][1,4]dioxin-6-yl)phenyl)butanoyl)piperidin-3-yl)-1H-benzo[d]imidazol-1-yl)ethyl)acetamide], the IC50 fell in the range of 100 to 1000 nM.

In the case of `CC(=O)NCCn1c([C@@H]2CCCN(C(=O)C[C@H](N)Cc3ccc(-c4cnc(N)nc4)cc3)C2)nc2ccccc21` [Compound 450, N-(2-(2-((R)-1-((R)-3-amino-4-(4-(2-aminopyrimidin-5-yl)phenyl)butanoyl)piperidin-3-yl)-1H-benzo[d]imidazol-1-yl)ethyl)acetamide], the IC50 fell in the range of 100 to 1000 nM. Take `COCCCn1c([C@@H]2CCCN(C(=O)C[C@H](N)Cc3ccc(-c4ccc(O)nc4)cc3)C2)nc2c(F)cccc21` [Compound 451, (R)-3-amino-1-((R)-3-(4-fluoro-1-(3-methoxypropyl)-1H-benzo[d]imidazol-2-yl)piperidin-1-yl)-4-(4-(6-hydroxypyridin-3-yl)phenyl)butan-1-one]: the half-maximal inhibitory concentration (IC50) is less than 100 nM. Take `COCCCn1c([C@@H]2CCCN(C(=O)C[C@H](N)Cc3ccc(-c4ccc(N)nc4)cc3)C2)nc2c(F)cccc21` [Compound 452, (R)-3-amino-4-(4-(6-aminopyridin-3-yl)phenyl)-1-((R)-3-(4-fluoro-1-(3-methoxypropyl)-1H-benzo[d]imidazol-2-yl)piperidin-1-yl)butan-1-one]: the IC50 was less than 100 nM.

On to `COCCCn1c([C@@H]2CCCN(C(=O)C[C@H](N)Cc3ccc(-c4ccc5c(c4)OCCN5C)cc3)C2)nc2c(F)cccc21` [Compound 453, (R)-3-amino-1-((R)-3-(4-fluoro-1-(3-methoxypropyl)-1H-benzo[d]imidazol-2-yl)piperidin-1-yl)-4-(4-(4-methyl-3,4-dihydro-2H-benzo[b][1,4]oxazin-7-yl)phenyl)butan-1-one], for which the IC50 is less than 100 nM. On to `COCCCn1c([C@@H]2CCCN(C(=O)C[C@H](N)Cc3ccc(-c4ccc5c(c4)OC(F)(F)O5)cc3)C2)nc2c(F)cccc21` [Compound 454, (R)-3-amino-4-(4-(2,2-difluorobenzo[d][1,3]dioxol-5-yl)phenyl)-1-((R)-3-(4-fluoro-1-(3-methoxypropyl)-1H-benzo[d]imidazol-2-yl)piperidin-1-yl)butan-1-one], for which the IC50 is less than 100 nM. Take `COCCCn1c([C@@H]2CCCN(C(=O)C[C@H](N)Cc3ccc(-c4ccc5c(c4)OCCO5)cc3)C2)nc2c(F)cccc21` [Compound 455, (R)-3-amino-4-(4-(2,3-dihydrobenzo[b][1,4]dioxin-6-yl)phenyl)-1-((R)-3-(4-fluoro-1-(3-methoxypropyl)-1H-benzo[d]imidazol-2-yl)piperidin-1-yl)butan-1-one]: the 50% inhibitory concentration (IC50) was less than 100 nM.

In the case of `COCCCn1c([C@@H]2CCCN(C(=O)C[C@H](N)Cc3ccc(-c4cnc(N)nc4)cc3)C2)nc2c(F)cccc21` [Compound 456, (R)-3-amino-4-(4-(2-aminopyrimidin-5-yl)phenyl)-1-((R)-3-(4-fluoro-1-(3-methoxypropyl)-1H-benzo[d]imidazol-2-yl)piperidin-1-yl)butan-1-one], the IC50 was less than 100 nM. Consider `COC(=O)Nc1ccc(-c2ccc(C[C@@H](N)CC(=O)N3CCC[C@@H](c4nc5ccccc5n4CCNC(C)=O)C3)cc2)cc1` [Compound 457, methyl 4′-((R)-4-((R)-3-(1-(2-acetamidoethyl)-1H-benzo[d]imidazol-2-yl)piperidin-1-yl)-2-amino-4-oxobutyl)biphenyl-4-ylcarbamate], for which the concentration for half-maximal inhibition (IC50) was less than 100 nM. The value for `COCCCn1c([C@@H]2CCCN(C(=O)C[C@H](N)Cc3ccc(-c4ccc5c(c4)CC(=O)N5)cc3)C2)nc2c(F)cccc21` [Compound 458, 5-(4-((R)-2-amino-4-((R)-3-(4-fluoro-1-(3-methoxypropyl)-1H-benzo[d]imidazol-2-yl)piperidin-1-yl)-4-oxobutyl)phenyl)indolin-2-one] was less than 100 nM. Regarding `COCCCn1c([C@@H]2CCCN(C(=O)C[C@H](N)Cc3ccc(-c4ccc5c(c4)NC(=O)C5)cc3)C2)nc2c(F)cccc21` [Compound 459, 6-(4-((R)-2-amino-4-((R)-3-(4-fluoro-1-(3-methoxypropyl)-1H-benzo[d]imidazol-2-yl)piperidin-l-yl)-4-oxobutyl)phenyl)indolin-2-one], the half-inhibitory concentration (IC50) was less than 100 nM.
